Reference: ChEMBL document CHEMBL1133278, “1-[2-[(Heteroarylmethoxy)aryl]carbamoyl]indolines are selective and orally active 5-HT2C receptor inverse agonists” (Bioorg Med Chem Lett, 2000)

How the values were obtained:
Rattus norvegicus [1] = test: Percent reversal of mCPP induced hypolocomotion after peroral administration at 5 mg/kg in rat; format: functional; settings: route oral
[2] = molecular target: Serotonin 2 receptors; 5-HT2a & 5-HT2c (Homo sapiens) (UniProt P28223+P28335); test: Selectivity at 5-HT 2C receptor compared to serotonin 5-HT 2A receptor; format: protein assay
Serotonin 2 receptors; 5-HT2a & 5-HT2c (Homo sapiens), sequence (P28223 whole entry, looked up, one chain of several): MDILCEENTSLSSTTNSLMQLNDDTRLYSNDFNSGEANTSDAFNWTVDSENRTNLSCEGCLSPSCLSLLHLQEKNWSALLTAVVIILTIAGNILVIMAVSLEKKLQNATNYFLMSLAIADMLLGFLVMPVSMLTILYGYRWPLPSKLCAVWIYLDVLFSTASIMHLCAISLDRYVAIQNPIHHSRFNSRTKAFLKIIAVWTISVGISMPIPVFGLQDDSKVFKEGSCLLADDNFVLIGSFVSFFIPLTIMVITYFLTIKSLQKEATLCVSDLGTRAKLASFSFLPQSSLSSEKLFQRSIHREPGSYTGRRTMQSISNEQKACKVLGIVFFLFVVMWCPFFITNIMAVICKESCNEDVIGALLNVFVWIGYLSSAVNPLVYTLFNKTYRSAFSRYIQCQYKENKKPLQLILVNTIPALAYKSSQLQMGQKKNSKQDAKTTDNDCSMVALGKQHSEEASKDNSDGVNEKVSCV

[3] = molecular target: 5-hydroxytryptamine receptor 2B (Homo sapiens, UniProt P41595); test: In vitro binding affinity at human cloned 5-hydroxytryptamine 2B receptor of HEK293 cells by [3H]5-HT displacement.; format: cell-based
5-hydroxytryptamine receptor 2B, sequence (P41595 whole entry): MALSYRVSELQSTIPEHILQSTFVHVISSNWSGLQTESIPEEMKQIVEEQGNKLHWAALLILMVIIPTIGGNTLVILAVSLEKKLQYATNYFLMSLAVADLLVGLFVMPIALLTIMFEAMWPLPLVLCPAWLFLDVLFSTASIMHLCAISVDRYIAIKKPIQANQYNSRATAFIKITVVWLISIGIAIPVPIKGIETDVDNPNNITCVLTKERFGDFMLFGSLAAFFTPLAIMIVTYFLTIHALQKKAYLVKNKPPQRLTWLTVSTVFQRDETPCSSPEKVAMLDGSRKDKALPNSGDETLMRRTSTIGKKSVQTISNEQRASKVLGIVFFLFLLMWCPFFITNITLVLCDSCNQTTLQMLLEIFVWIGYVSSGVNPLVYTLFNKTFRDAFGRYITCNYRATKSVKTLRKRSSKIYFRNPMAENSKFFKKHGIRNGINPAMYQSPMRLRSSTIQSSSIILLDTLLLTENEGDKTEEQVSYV

[4] = molecular target: Serotonin receptor (2b and 2c) (Homo sapiens) (UniProt P41595+P28335); test: Selectivity at serotonin 5-HT 2C receptor compared to serotonin 5-HT 2B receptor; format: protein assay
[5] = molecular target: 5-hydroxytryptamine receptor 2A (Homo sapiens, UniProt P28223); test: In vitro binding affinity at human cloned 5-hydroxytryptamine 2A receptor of HEK293 cells by [3H]ketanserin displacement.; format: cell-based
5-hydroxytryptamine receptor 2A, sequence (P28223 whole entry): as the sequence (P28223 whole entry, looked up, one chain of several) above

[6] = molecular target: T1, 5-hydroxytryptamine receptor 2C (Homo sapiens, UniProt P28335); test: In vitro binding affinity at human cloned 5-hydroxytryptamine 2C receptor of HEK293 cells by [3H]mesulergine displacement.; format: cell-based
T1 sequence (P28335 whole entry): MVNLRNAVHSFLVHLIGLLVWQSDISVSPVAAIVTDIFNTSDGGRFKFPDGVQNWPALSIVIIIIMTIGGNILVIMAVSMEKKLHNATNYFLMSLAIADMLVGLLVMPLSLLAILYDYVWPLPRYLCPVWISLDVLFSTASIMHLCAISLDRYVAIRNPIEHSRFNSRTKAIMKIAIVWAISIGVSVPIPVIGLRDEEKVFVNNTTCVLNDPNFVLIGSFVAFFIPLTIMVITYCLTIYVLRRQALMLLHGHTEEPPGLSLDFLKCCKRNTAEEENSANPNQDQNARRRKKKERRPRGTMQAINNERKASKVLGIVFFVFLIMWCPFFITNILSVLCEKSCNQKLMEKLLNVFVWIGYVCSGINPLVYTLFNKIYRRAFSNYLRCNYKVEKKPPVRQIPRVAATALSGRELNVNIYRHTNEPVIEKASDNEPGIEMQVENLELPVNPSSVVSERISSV

Rattus norvegicus [7] = test: Dose required to reverse mCPP induced hypolocomotion by 50% at 7 mg/kg, ip administration 30 min pretest in rat; format: functional; settings: po, 0.5 h, read-out: ID50 (the source's name)

Row | Structure (SMILES) | Selectivity [2] | Ki [3] | Selectivity [4] | Ki [5] | Ki [6] | Reversal (Rattus norvegicus [1]) | ED50 (Rattus norvegicus [7])
1 | Cc1cc2c(cc1Cl)N(C(=O)Nc1ccc(OCc3nccs3)nc1)CC2 | > 160 | 100 nM | 20 | > 794 nM | 5.01 nM | 2% | –
2 | Cc1cc2c(cc1C(F)(F)F)N(C(=O)Nc1ccc(OCc3ccccn3)cc1)CC2 | 160 | 25.1 nM | 10 | 398 nM | 2.51 nM | 84% | –
3 | Cc1cc2c(cc1C(F)(F)F)N(C(=O)Nc1ccc(OCc3ccccn3)nn1)CC2 | 50 | 79.4 nM | 15 | 251 nM | 5.01 nM | – | –
4 | Cc1cc2c(cc1C(F)(F)F)N(C(=O)Nc1ccc(OCc3cncn3C)nc1)CC2 | 25 | 6.31 nM | 2 | 100 nM | 3.98 nM | – | –
5 | Cc1cc2c(cc1C(F)(F)F)N(C(=O)Nc1ccc(OCc3cnccn3)nc1)CC2 | 630 | 10 nM | 20 | 316 nM | 0.501 nM | 58% | –
6 | Cc1cc2c(cc1Cl)N(C(=O)Nc1ccc(OCc3nccn3C)nc1)CC2 | 50 | 12.6 nM | 2.5 | 251 nM | 5.01 nM | – | –
7 | Cc1cccc(COc2ccc(NC(=O)N3CCc4cc(C)c(C(F)(F)F)cc43)cn2)n1 | 160 | 25.1 nM | 4 | 1000 nM | 6.31 nM | – | –
8 | Cc1cc2c(cc1C(F)(F)F)N(C(=O)Nc1cnc(OCc3ccccn3)c(C)c1)CC2 | 100 | 7.94 nM | 20 | 39.8 nM | 0.398 nM | – | 0.3 mg/kg
9 | Cc1cc2c(cc1C(F)(F)F)N(C(=O)Nc1ccc(CCc3ccccn3)nc1)CC2 | 50 | 20 nM | 6 | 158 nM | 3.16 nM | – | –
10 | Cc1cc2c(cc1C(F)(F)F)N(C(=O)Nc1ccc(OCc3ncccc3C)nc1)CC2 | 40 | 15.8 nM | 4 | 158 nM | 3.98 nM | – | –
11 | Cc1cc2c(cc1C(F)(F)F)N(C(=O)Nc1ccc(OCCc3ccccn3)nc1)CC2 | 200 | 20 nM | 2 | 2000 nM | 10 nM | – | –

Now from value to compound, other results behind:

Row | Selectivity [2] | Ki [3] | Selectivity [4] | Ki [5] | Ki [6] | Structure (SMILES) | Reversal (Rattus norvegicus [1]) | ED50 (Rattus norvegicus [7])
12 | 800 | 398 nM | 60 | 5010 nM | 6.31 nM | O=C(Nc1ccc(OCc2ccccn2)nc1)N1CCc2cc(C(F)(F)F)ccc21 | – | 1.6 mg/kg
13 | 60 | 1000 nM | 13 | 5010 nM | 79.4 nM | O=C(Nc1ccc(OCc2ccccn2)nc1)N1CCc2c(Cl)cccc21 | – | –
14 | > 320 | 100 nM | 40 | > 794 nM | 2.51 nM | Cc1cc2c(cc1Cl)N(C(=O)Nc1ccc(OCc3ccccn3)nc1)CC2 | 41% | –
15 | 20 | 200 nM | 40 | 100 nM | 5.01 nM | Cc1cc2c(cc1C(F)(F)F)N(C(=O)Nc1ccc(COc3ccccn3)nc1)CC2 | – | –
16 | 160 | 501 nM | 30 | 2510 nM | 15.8 nM | O=C(Nc1ccc(OCc2ccccn2)nc1)N1CCc2cc(Br)ccc21 | – | 2.4 mg/kg
17 | 1300 | 31.6 nM | 60 | 631 nM | 0.501 nM | Cc1cc2c(cc1C(F)(F)F)N(C(=O)Nc1ccc(OCc3ccccn3)nc1)CC2 | – | 1 mg/kg
18 | > 160 | 1000 nM | 30 | > 5010 nM | 31.6 nM | O=C(Nc1ccc(OCc2ccccn2)nc1)N1CCc2cc(Cl)ccc21 | – | –
19 | > 30 | 25.1 nM | 1 | > 794 nM | 25.1 nM | Cc1cc2c(cc1Cl)N(C(=O)Nc1ccc(OCc3cccnc3)nc1)CC2 | – | –
20 | 60 | 7.94 nM | 6 | 79.4 nM | 1.26 nM | Cc1cc2c(cc1Cl)N(C(=O)Nc1ccc(OCc3ccncc3)nc1)CC2 | – | –
21 | 30 | 251 nM | 30 | 251 nM | 7.94 nM | O=C(Nc1ccc(OCc2ccccn2)nc1)N1CCc2ccc(C(F)(F)F)cc21 | – | –
